Data taken from publication PMC10649178, “Exploring the Interactions of Soybean 7S Globulin with Gallic Acid, Chlorogenic Acid and (−)-Epigallocatechin Gallate” (Foods, 2023).
pKd: −log10 of the molar value. Marks after values point to notes of the source that are not given here. Blank lines part the entries; values can stand above or below the compound they belong to.

Legend:
[1] = biological target: T1, soybean 7S globulin (7S; β-conglycinin) (Glycine max, UniProt P0DO16+P11827+P25974); test: intrinsic fluorescence quenching, double-logarithmic fit; format: binding; conditions: 10 mM phosphate pH 7.0, 298 K, 10 μM 7S, 0-12 μM ligand
T1 construct: gene CG-1; mature trimers of α, α’ and β, 150-180 kDa
T1 sequence (P11827 63-621): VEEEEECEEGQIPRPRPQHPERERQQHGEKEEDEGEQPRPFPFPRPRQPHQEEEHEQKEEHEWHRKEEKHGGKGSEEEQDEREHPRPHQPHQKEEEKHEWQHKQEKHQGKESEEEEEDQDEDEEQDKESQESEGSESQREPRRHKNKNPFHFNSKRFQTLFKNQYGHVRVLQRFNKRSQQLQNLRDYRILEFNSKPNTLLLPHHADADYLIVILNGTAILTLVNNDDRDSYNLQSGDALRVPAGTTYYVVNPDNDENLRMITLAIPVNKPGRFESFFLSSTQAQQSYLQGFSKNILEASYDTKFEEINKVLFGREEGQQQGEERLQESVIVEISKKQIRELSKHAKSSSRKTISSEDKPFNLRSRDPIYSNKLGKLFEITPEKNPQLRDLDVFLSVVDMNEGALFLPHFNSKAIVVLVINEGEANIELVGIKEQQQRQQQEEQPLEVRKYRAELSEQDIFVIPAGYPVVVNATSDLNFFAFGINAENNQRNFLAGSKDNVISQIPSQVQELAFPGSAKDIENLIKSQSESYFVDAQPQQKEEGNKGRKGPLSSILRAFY
T1 sequence (P0DO16 63-605): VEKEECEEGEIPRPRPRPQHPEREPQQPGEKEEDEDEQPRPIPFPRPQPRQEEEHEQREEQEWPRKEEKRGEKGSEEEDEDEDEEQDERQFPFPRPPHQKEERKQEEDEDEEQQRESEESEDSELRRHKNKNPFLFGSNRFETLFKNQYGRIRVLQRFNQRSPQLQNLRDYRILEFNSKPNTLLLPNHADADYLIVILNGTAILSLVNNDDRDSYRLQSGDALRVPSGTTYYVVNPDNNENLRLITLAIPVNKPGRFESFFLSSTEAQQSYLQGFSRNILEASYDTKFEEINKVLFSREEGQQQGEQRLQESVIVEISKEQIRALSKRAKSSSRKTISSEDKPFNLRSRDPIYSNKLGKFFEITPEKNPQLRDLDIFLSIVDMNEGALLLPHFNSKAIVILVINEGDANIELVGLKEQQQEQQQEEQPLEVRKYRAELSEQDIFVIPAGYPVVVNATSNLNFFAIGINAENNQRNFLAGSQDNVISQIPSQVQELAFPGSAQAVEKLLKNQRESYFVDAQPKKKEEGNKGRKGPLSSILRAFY
T1 sequence (P25974 24-439): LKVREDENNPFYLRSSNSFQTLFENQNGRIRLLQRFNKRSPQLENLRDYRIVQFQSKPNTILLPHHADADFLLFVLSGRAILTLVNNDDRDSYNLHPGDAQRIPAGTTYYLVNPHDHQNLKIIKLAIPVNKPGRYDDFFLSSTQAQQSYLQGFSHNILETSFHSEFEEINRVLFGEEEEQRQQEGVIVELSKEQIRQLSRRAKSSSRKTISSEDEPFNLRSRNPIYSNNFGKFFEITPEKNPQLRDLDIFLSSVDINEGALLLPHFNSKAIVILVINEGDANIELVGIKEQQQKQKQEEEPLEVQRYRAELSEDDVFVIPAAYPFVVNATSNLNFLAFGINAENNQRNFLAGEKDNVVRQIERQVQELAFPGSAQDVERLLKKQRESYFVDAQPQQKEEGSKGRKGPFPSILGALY
Excerpt: intrinsic fluorescence quenching, double-logarithmic fit on soybean 7S globulin (7S; β-conglycinin)

[2] = biological target: T1, soybean 7S globulin (7S; β-conglycinin); test: isothermal titration calorimetry, one-site model; format: binding; conditions: 10 mM phosphate pH 7.0, 25 °C, 5 mM ligand
Excerpt: isothermal titration calorimetry, one-site model on soybean 7S globulin (7S; β-conglycinin)

SMILES: O=C(O[C@@H]1Cc2c(O)cc(O)cc2O[C@@H]1c1cc(O)c(O)c(O)c1)c1cc(O)c(O)c(O)c1 [EGCG, (−)-epigallocatechin gallate]
Ka (10^4 L/mol) ([1]; n = 1.25): 6.23 ± 0.30 (10^4)
pKd ([2]; 5 μM 7S, N = 1.68 sites): 3.31

Ka (10^4 L/mol) ([1]; n = 1.42): 7.44 ± 0.32 (10^4)
pKd ([2]; 10 μM 7S, N = 7.23 sites): 3.35
SMILES: O=C(/C=C/c1ccc(O)c(O)c1)O[C@@H]1C[C@](O)(C(=O)O)C[C@@H](O)[C@H]1O [CA, chlorogenic acid]

SMILES: O=C(O)c1cc(O)c(O)c(O)c1 [GA, gallic acid]
Ka (10^4 L/mol) ([1]; n = 1.12): 5.10 ± 0.30 (10^4)
pKd ([2]; 10 μM 7S, N = 10.0 sites): 3.14
